The record followed here is patent US20260347373A1, “HETEROCYCLIC COMPOUNDS, COMPOSITIONS THEREOF, AND METHODS OF TREATMENT THEREWITH” (BeOne Medicines I GmbH, priority 2023, published 2026).

One assay deals with WT KRAS (Homo sapiens, UniProt P01116). The assay can be described thus: KRAS WT Probe Displacement Assay (TR-FRET, GDP-loaded). The assay is classed as binding. The note with it: KRAS WT, read-out: KRAS^WT Probe Displacement Assay IC50. The source says: (§1) The synthetic routes of probe 1 and 2, which have been disclosed in PCT/CN2022/070676, are hereby incorporated herein.
WT KRAS, sequence (P01116 1-188 isoform P01116-2): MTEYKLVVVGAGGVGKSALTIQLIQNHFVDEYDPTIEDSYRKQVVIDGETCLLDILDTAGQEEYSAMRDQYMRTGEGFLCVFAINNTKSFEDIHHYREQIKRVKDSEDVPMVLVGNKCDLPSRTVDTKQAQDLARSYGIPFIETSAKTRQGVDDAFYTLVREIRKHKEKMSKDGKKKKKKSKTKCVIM
The next assay addresses KRAS G12D (Homo sapiens, UniProt P01116, G12D). The assay can be described thus: KRAS G12D Probe Displacement Assay (TR-FRET, GDP-loaded). The assay is classed as binding. The note with it: KRAS G12D, read-out: KRAS^G12D Probe Displacement Assay IC50.
Source text: as §1

pIC50: −log10 of the molar value.

KRAS G12D, sequence (P01116 1-188 isoform P01116-2 G12D): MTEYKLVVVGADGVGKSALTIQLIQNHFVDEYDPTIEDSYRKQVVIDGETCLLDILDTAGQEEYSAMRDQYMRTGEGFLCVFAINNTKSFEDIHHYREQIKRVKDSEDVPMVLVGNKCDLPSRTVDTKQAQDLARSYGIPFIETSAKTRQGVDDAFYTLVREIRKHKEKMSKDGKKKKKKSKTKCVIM

In the case of `Cc1cc(N)cc(-c2nc3c4c(nc(OCC5(CN6C[C@@H]7C[C@@H]7[C@H]6C)CC5)nc4c2F)N2C[C@H]4CC[C@H](N4)[C@H]2CCO3)c1C(F)(F)F` [Example 171, 3-((6aR,7S,10R)-1-fluoro-13-((1-(((1S,2R,5R)-2-methyl-3-azabicyclo[3.1.0]hexan-3-yl)methyl)cyclopropyl)methoxy)-5,6,6a,7,8,9,10,11-octahydro-4-oxa-3,11a,12,14,15-pentaaza-7,10-methanocyclohepta[4,5]cycloocta[1,2,3-de]naphthalen-2-yl)-5-methyl-4-(trifluoromethyl)aniline], the pIC50 was 6.00 to 8.52 on WT KRAS and over 9.52 at KRAS G12D.

For `Cc1cc(N)cc(-c2nc3c4c(nc(OCC56C=CCN5C[C@H](F)C6)nc4c2F)N2C[C@H]4CC[C@H](N4)[C@H]2CCO3)c1C(F)(F)F` (single isomer, unassigned) [Example 204], the pIC50 at WT KRAS was 6.00 to 8.52; at KRAS G12D it was over 9.52.

With `Cc1cc(N)cc(-c2nc3c4c(nc(OCC5(CN6C[C@@H]7[C@@H](CF)[C@@H]7C6)CC5)nc4c2F)N2C[C@H]4CC[C@H](N4)[C@H]2CCO3)c1C(F)(F)F` [Example 170, 3-((6aR,7S,10R)-1-fluoro-13-((1-(((1R,5S,6R)-6-(fluoromethyl)-3-azabicyclo[3.1.0]hexan-3-yl)methyl)cyclopropyl)methoxy)-5,6,6a,7,8,9,10,11-octahydro-4-oxa-3,11a,12,14,15-pentaaza-7,10-methanocyclohepta[4,5]cycloocta[1,2,3-de]naphthalen-2-yl)-5-methyl-4-(trifluoromethyl)aniline], the pIC50 on WT KRAS was 6.00 to 8.52; on KRAS G12D it was over 9.52.

For `Cc1cc(N)cc(-c2nc3c4c(nc(OCC5(CN6CCN(C7CC7)CC6)CC5)nc4c2F)N2C[C@H]4CC[C@H](N4)[C@H]2CCO3)c1C(F)(F)F` [Example 192, 3-((6aR,7S,10R)-13-((1-((4-cyclopropylpiperazin-1-yl)methyl)cyclopropyl)methoxy)-1-fluoro-5,6,6a,7,8,9,10,11-octahydro-4-oxa-3,11a,12,14,15-pentaaza-7,10-methanocyclohepta[4,5]cycloocta[1,2,3-de]naphthalen-2-yl)-5-methyl-4-(trifluoromethyl)aniline], the pIC50 is 8.52 to 9.52 on WT KRAS and over 9.52 at KRAS G12D.

On to `[2H]C([2H])([2H])N1CCC(C(F)F)C(C)(C([2H])([2H])Oc2nc3c4c(nc(-c5cc(N)cc(C)c5C(F)(F)F)c(F)c4n2)OCC[C@@H]2[C@@H]4CC[C@H](CN32)N4)C1` (single isomer, unassigned) [Example 240], for which the pIC50 at WT KRAS was 6.00 to 8.52; at KRAS G12D, 8.52 to 9.52.

In the case of `Cc1cc(N)cc(-c2nc3c4c(nc(OCC5(CN6CCC6)CC5)nc4c2F)N2C[C@H]4CC[C@H](N4)[C@H]2CCO3)c1C(F)(F)F` [Example 78, 3-((6aR,7S,10R)-13-((1-(azetidin-1-ylmethyl)cyclopropyl)methoxy)-1-fluoro-5,6,6a,7,8,9,10,11-octahydro-4-oxa-3, 11a,12,14,15-pentaaza-7,10-methanocyclohepta [4,5]cycloocta [1,2,3-de]naphthalen-2-yl)-5-methyl-4-(trifluoromethyl)aniline], the results for the pIC50 on WT KRAS and at KRAS G12D were 6.00 to 8.52 and 8.52 to 9.52, respectively.

`COC1(C)CN(CC2(COc3nc4c5c(nc(-c6cc(N)cc(C)c6C(F)(F)F)c(F)c5n3)OCC[C@@H]3[C@@H]5CC[C@H](CN43)N5)CC2)C1` [Example 84, 3-((6aR,7S,10R)-1-fluoro-13-((1-((3-methoxy-3-methylazetidin-1-yl)methyl)cyclopropyl)methoxy)-5,6,6a,7,8,9,10,11-octahydro-4-oxa-3,11a,12,14,15-pentaaza-7,10-methanocyclohepta [4,5]cycloocta [1,2,3-de]naphthalen-2-yl)-5-methyl-4-(trifluoromethyl)aniline]: the pIC50 at WT KRAS was 6.00 to 8.52; on KRAS G12D, over 9.52.

With `Cc1cc(N)cc(-c2nc3c4c(nc(OCC56C[C@@H](F)CN5C[C@H](F)C6)nc4c2F)N2C[C@H]4CC[C@H](N4)[C@H]2CCO3)c1C(F)(F)F` [Example 36, 3-((6aR,7S,10R)-13-(((2R,6R)-2,6-difluorotetrahydro-1H-pyrrolizin-7a(5H)-yl)methoxy)-1-fluoro-5,6,6a,7,8,9,10,11-octahydro-4-oxa-3,11a,12,14,15-pentaaza-7,10-methanocyclohepta[4,5]cycloocta [1,2,3-de]naphthalen-2-yl)-5-methyl-4-(trifluoromethyl)aniline], the pIC50 on WT KRAS was 6.00 to 8.52; at KRAS G12D, over 9.52.

Take `Cc1cc(N)cc(-c2nc3c4c(nc(OCC5(C)CC(F)CN(C6CCOCC6)C5)nc4c2F)N2C[C@H]4CC[C@H](N4)[C@H]2CCO3)c1C(F)(F)F` (single isomer, unassigned) [Example 233]: the figures for the pIC50 on WT KRAS and on KRAS G12D were 6.00 to 8.52 and 8.52 to 9.52, respectively.

Regarding `Nc1cc(Cl)c(C(F)(F)F)c(-c2nc3c4c(nc(OCC5(CN6CCC(=C(F)F)C6)CC5)nc4c2F)N2C[C@H]4CC[C@H](N4)[C@H]2CCO3)c1` [Example 151, 3-chloro-5-((6aR,7S,10R)-13-((1-((3-(difluoromethylene)pyrrolidin-1-yl)methyl)cyclopropyl)methoxy)-1-fluoro-5,6,6a,7,8,9,10,11-octahydro-4-oxa-3,11a,12,14,15-pentaaza-7,10-methano-cyclohepta[4,5]cycloocta [1,2,3-de]naphthalen-2-yl)-4-(trifluoromethyl)aniline], the pIC50 at WT KRAS was 6.00 to 8.52; at KRAS G12D, over 9.52.

`COC[C@H]1[C@@H]2C[C@@H]2CN1CC1(COc2nc3c4c(nc(-c5cc(N)cc(C)c5C(F)(F)F)c(F)c4n2)OCC[C@@H]2[C@@H]4CC[C@H](CN32)N4)CC1` [Example 181, 3-((6aR,7S,10R)-1-fluoro-13-((1-(((1R,2R,5S)-2-(methoxymethyl)-3-azabicyclo[3.1.0]hexan-3-yl)methyl)cyclopropyl)methoxy)-5,6,6a,7,8,9,10,11-octahydro-4-oxa-3,11a,12,14,15-pentaaza-7,10-methanocyclohepta[4,5]cycloocta[1,2,3-de]naphthalen-2-yl)-5-methyl-4-(trifluoromethyl)aniline]: the pIC50 at WT KRAS was 6.00 to 8.52; at KRAS G12D, over 9.52.

As to `[2H]C([2H])([2H])c1cc(N)cc(-c2nc3c4c(nc(OC[C@@]5(CN(C)C)CC5(F)F)nc4c2F)N2C[C@H]4CC[C@H](N4)[C@H]2CCO3)c1C(F)(F)F` [Example 46, 3-((6aR,7S,10R)-13-(((S)-1-((dimethylamino)methyl)-2,2-difluorocyclopropyl)methoxy)-1-fluoro-5,6,6a,7,8,9,10,11-octahydro-4-oxa-3,11a,12,14,15-pentaaza-7,10-methanocyclohepta[4,5]cycloocta [1,2,3-de]naphthalen-2-yl)-5-(methyl-d3)-4-(trifluoromethyl)aniline], the values for the pIC50 on WT KRAS and at KRAS G12D were 6.00 to 8.52 and over 9.52, respectively.

For the compound `Cc1cc(N)cc(-c2nc3c4c(nc(OCC5(CN6C[C@H]7C[C@H]7[C@@H]6CO)CC5)nc4c2F)N2C[C@H]4CC[C@H](N4)[C@H]2CCO3)c1C(F)(F)F` [Example 96, ((1R,2R,5S)-3-((1-((((6aR,7S,10R)-2-(5-amino-3-methyl-2-(trifluoromethyl)phenyl)-1-fluoro-5,6,6a,7,8,9,10,11-octahydro-4-oxa-3,11a,12,14,15-pentaaza-7,10-methanocyclohepta [4,5]cycloocta[1,2,3-de]naphthalen-13-yl)oxy)methyl)cyclopropyl)methyl)-3-azabicyclo [3.1.0]hexan-2-yl) methanol], the results for the pIC50 on WT KRAS and on KRAS G12D were 6.00 to 8.52 and over 9.52, respectively.

With `Cc1cc(N)cc(-c2nc3c4c(nc(OCC5(CN6CCn7cncc7C6)CC5)nc4c2F)N2C[C@H]4CC[C@H](N4)[C@H]2CCO3)c1C(F)(F)F` [Example 108, 3-((6aR,7S,10R)-13-((1-((5,6-dihydroimidazo [1,5-a]pyrazin-7(8H)-yl)methyl)cyclopropyl)methoxy)-1-fluoro-5,6,6a,7,8,9, 10,11-octahydro-4-oxa-3,11a,12,14,15-pentaaza-7,10-methanocyclohepta [4,5]cycloocta [1,2,3-de]naphthalen-2-yl)-5-methyl-4-(trifluoromethyl)aniline], the pIC50 at WT KRAS is 6.00 to 8.52; on KRAS G12D it was 8.52 to 9.52.

For the compound `Nc1cc(Cl)c(C(F)(F)F)c(-c2nc3c4c(nc(OCC5(CN6CCC(=CF)CC6)CC5)nc4c2F)N2C[C@H]4CC[C@H](N4)[C@H]2CCO3)c1` [Example 156, 3-chloro-5-((6aR,7S,10R)-1-fluoro-13-((1-((4-(fluoromethylene)piperidin-1-yl)methyl)cyclopropyl)methoxy)-5,6,6a,7,8,9,10,11-octahydro-4-oxa-3,11a,12,14,15-pentaaza-7,10-methanocyclohepta[4,5]cycloocta [1,2,3-de]naphthalen-2-yl)-4-(trifluoromethyl)aniline], the pIC50 is 8.52 to 9.52 at WT KRAS and over 9.52 at KRAS G12D.

For `Cc1cc(N)cc(-c2nc3c4c(nc(OC[C@@H]5OC[C@H]5N(C)C)nc4c2F)N2C[C@H]4CC[C@H](N4)[C@H]2CCO3)c1C(F)(F)F` [Example 130, (2R,3R)-2-((((6aR,7S,10R)-2-(5-amino-3-methyl-2-(trifluoromethyl)phenyl)-1-fluoro-5,6,6a,7,8,9,10,11-octahydro-4-oxa-3,11a,12,14,15-pentaaza-7,10-methanocyclohepta[4,5]cycloocta [1,2,3-de]naphthalen-13-yl)oxy)methyl)-N,N-dimethyloxetan-3-amine], the pIC50 at WT KRAS was 6.00 to 8.52; on KRAS G12D, 8.52 to 9.52.

`Cc1cc(N)cc(-c2nc3c4c(nc(OCC5(CN6CCC(C#N)C6)CC5)nc4c2F)N2C[C@H]4CC[C@H](N4)[C@H]2CCO3)c1C(F)(F)F` (stereo partly drawn) [Example 166, 1-((1-((((6aR,7S,10R)-2-(5-amino-3-methyl-2-(trifluoromethyl)phenyl)-1-fluoro-5,6,6a,7,8,9,10,11-octahydro-4-oxa-3,11a,12,14,15-pentaaza-7,10-methanocyclohepta[4,5]cycloocta[1,2,3-de]naphthalen-13-yl)oxy)methyl)cyclopropyl)methyl)pyrrolidine-3-carbonitrile]: the figures for the pIC50 at WT KRAS and on KRAS G12D were 6.00 to 8.52 and over 9.52, respectively.
